Key:
[1] = test system: ERα negative MDA-MB-231 cells; assay: MDA-MB-231 cell growth / toxicity assay (MTS); format: cell-based, human
Procedure: ERα negative MDA-MB-231 human breast cancer cells were used to test for generalized toxicity of the test compounds. To parallel the reporter gene assays in stably transfected T47D breast cancer cells, 5,000 MDA-MB-231 cells per well were plated in a 96 well plate. The cells were maintained in the medium described above for the T47D cells. One day after plating, the same concentration of test compound used in the reporter gene assay (up to 30 μM) was added. After 24 h the MTS assay was carried out as described above. A more stringent toxicity assay parallels the assay for inhibition of estrogen-dependent growth of BG-1 cells. 250 MDA-MB-231 cells were plated per well and maintained and assayed as described for the BG-1 cells. Several compounds without detectable toxicity in the 24-h assay inhibited MDA-MB-231 cell growth in the 5-6 day assay.
Assays for Cell Growth and Viability. Cells were maintained in the media listed above containing CD-treated serum for at least 4 days prior to the experiment. To minimize cell aggregation, MCF-7 cells were harvested in 10 mM Hepes, pH 7.4, 1 mM EDTA. Other cell lines were harvested in trypsin-EDTA. 1,000 cells were plated into each well of a 96 well plate. For slow growing ZR-75 cells, 2,000 cells were plated/well. The cells were maintained in medium containing CD-treated serum for 24 hours. At 24 hours the medium was changed and E2 and DMSO vehicle or TPSF in DMSO was added. The medium was replaced after 2 days (except for BT474 cells whose medium was not changed). After 4 days viable cells were determined using a cell viability test, Promega CellTiter 96 Aqueous One Solution Cell Proliferation Assay (MTS) (Promega, Wis.).

ER negative HeLa cells = conditions: 10-20 μM; cited from earlier work
GR = target: T1, GR (Rattus norvegicus, UniProt P06536); assay: GR transactivation, MMTV-luciferase reporter in T47D cells; format: cell-based, human
T1 construct: expressed in transfected cells; host or cells: T47D/A1-2
T1 sequence (P06536 1-795): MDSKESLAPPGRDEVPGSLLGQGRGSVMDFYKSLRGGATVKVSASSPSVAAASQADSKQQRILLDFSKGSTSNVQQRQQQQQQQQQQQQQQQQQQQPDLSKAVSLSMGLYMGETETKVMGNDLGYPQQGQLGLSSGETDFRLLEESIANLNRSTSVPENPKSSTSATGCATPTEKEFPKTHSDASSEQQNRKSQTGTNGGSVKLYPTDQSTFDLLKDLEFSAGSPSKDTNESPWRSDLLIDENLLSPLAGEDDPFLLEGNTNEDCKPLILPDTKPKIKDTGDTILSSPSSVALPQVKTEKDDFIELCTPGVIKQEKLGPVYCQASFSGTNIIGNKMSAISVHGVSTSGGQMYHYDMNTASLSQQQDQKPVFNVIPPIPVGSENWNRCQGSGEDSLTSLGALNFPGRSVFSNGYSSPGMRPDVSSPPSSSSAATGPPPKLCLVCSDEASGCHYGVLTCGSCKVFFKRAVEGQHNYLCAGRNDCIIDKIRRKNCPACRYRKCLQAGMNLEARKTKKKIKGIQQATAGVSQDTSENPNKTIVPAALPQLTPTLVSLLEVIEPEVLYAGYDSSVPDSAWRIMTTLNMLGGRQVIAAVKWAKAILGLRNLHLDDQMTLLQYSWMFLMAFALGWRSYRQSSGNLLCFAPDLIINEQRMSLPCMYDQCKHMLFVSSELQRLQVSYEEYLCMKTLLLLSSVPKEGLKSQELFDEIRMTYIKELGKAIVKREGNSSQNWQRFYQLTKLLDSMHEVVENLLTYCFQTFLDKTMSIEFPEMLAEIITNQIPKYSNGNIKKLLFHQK
Procedure: The T47D-KBluc cells stably express an (ERE)3-luciferase reporter gene (38). Cells were maintained in phenol red-free RPMI 1640 with 2 mM L-glutamine, 1.5 g/l sodium bicarbonate, 4.5 g/l glucose, 10 mM Hepes, pH 7.5, 1 mM sodium pyruvate, 10% FBS (Atlanta Biological, Atlanta, Ga.) and antibiotics. Four days before E2 induction, the cells were switched to the above medium, with 10% 2× charcoal-dextran-treated calf serum instead of FBS. 200,000 cells/well were transferred to each well of a 24-well plate. After 24 h the indicated concentrations of the test compounds were added in DMSO and E2 was added to 20 pM. After 24 h cells were washed once in PBS, and 150 μl 1× Passive Lysis Buffer (Promega, Madison Wis.) was used to lyse the cells. Luciferase activity was determined using firefly luciferase reagents from Promega (Madison, Wis.). T47D cells stably transfected to express GR and a mouse mammary tumor virus luciferase reporter that responds to liganded GR and PR were maintained and assayed in medium containing 5 nM progesterone for PR assays, or 2.5 nM dexamethsaone for GR assays, essentially as described (39).
(§1) Reporter Gene Assays. TPSF was identified by reporter gene assays comparing the ability of ˜200 compounds structurally related to TPBM (see reference 19) to inhibit transcription of a stably transfected (ERE)3-luciferase reporter gene in T47D-KBluc breast cancer cells (20). AR was assayed in stably transfected HeLa cells and GR was assayed in stably transfected T47D cells maintained as described above. Four days before each experiment the cells were switched to medium containing CD-treated serum as described above. The HeLaAR cells were plated at 100,000 cells/well and the T47D/A1-2 and T47D-KBluc cells were plated at 200,000 cells/well in 1 ml of their respective media in 24-well plates. After 24 hours the indicated concentrations of E2, dihydrotestosterone (DHT) or dexamethasone (Dex) and DMSO vehicle, with or without TPSF, were added to each well. After 24 hours, the cells were washed once in phosphate buffered saline and lysed using 100 μl of 1× Passive Lysis Buffer (Promega, Madison Wis.). Luciferase activity was determined using BrightGlo firefly luciferase reagent from Promega (Madison, Wis.).

ERα = target: T2, ERα (Homo sapiens, UniProt P03372); assay: (ERE)3-luciferase reporter gene assay in T47D-KBluc cells; format: cell-based; set-up: Using a stably transfected breast cancer cell line that expresses endogenous ERα; endogenous in cells; host or cells: T47D-KBluc
T2 sequence (P03372 1-595): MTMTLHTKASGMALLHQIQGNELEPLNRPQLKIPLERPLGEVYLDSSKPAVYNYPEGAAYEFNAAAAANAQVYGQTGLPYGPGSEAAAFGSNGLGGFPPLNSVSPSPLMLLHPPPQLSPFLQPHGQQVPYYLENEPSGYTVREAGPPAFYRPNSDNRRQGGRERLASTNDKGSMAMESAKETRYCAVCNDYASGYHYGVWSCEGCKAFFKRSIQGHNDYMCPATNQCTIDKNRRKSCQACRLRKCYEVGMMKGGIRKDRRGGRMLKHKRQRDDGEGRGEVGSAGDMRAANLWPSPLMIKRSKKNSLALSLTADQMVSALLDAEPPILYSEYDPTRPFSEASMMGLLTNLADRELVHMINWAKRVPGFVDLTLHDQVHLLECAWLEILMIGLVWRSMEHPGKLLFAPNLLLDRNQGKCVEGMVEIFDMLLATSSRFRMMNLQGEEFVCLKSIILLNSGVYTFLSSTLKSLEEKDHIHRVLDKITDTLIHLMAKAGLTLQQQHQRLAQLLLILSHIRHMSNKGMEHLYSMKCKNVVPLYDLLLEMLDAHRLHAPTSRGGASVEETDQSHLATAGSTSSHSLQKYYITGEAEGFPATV
Procedure: The T47D-KBluc cells stably express an (ERE)3-luciferase reporter gene (38). […] Four days before E2 induction, the cells were switched to the above medium, with 10% 2× charcoal-dextran-treated calf serum instead of FBS. 200,000 cells/well were transferred to each well of a 24-well plate. After 24 h the indicated concentrations of the test compounds were added in DMSO and E2 was added to 20 pM. After 24 h cells were washed once in PBS, and 150 μl 1× Passive Lysis Buffer (Promega, Madison Wis.) was used to lyse the cells. Luciferase activity was determined using firefly luciferase reagents from Promega (Madison, Wis.).
as §1, with “TPSF was identified by reporter gene assays comparing the ability of ˜200 compounds structurally related to TPBM (see reference 19) to inhibit transcription of a stably transfected (ERE)3-luciferase reporter gene in T47D-KBluc breast cancer cells (20).” left out

[2] = Short-term mouse toxicity study; format: in vivo; conditions: up to 400 mg/kg
BT474 cells = conditions: 5 μM; see Wang 2006; cited from earlier work
ZR-75 cells = conditions: 5 μM; see Wang 2006; cited from earlier work

For “4-hydroxytamoxifen [OHT, reference compound]”, the “effect on MDA-MB-231 cells” value ([1]; 10 μM) is given as “killed many”, the “effect on MDA-MB-231 cells” value ([1]; 20 μM) is given as “all the cells were killed” and the “effect in ER negative HeLa cells” value (ER negative HeLa cells) is given as “induce caspase-dependent apoptosis”.

With Cn1c(=O)c2[nH]c(Cc3ccc4ccccc4c3)nc2n(C)c1=O [Compound 14147] the “effect on GR” value (GR) was “virtually no effect”.

For Cn1c(=S)c2[nH]c(SCCCc3ccccc3)nc2n(C)c1=O [Compound 99676], the “potency as ERα inhibitor relative to TPSF (less potent)” value (ERα) was roughly 13 fold and the IC50 (ERα; T47D (ERE)3-Luc cells, 24 h, FIG. 13, E2 concentration for 99676 not stated, read-out: IC50 for inhibition of ERα-mediated gene expression) was 9 µM.

In the case of CCCCCCCc1nc2c([nH]1)c(=O)n(C)c(=O)n2C [Compound 101794], the “toxicity in a short-term mouse study” value [2] is reported as “no toxicity”.

In the case of O=C(c1ccc(OCCN2CCCCC2)cc1)c1c(-c2ccc(O)cc2)sc2cc(O)ccc12 [raloxifene], the “effect in ER negative HeLa cells” value (ER negative HeLa cells) is given as “induce caspase-dependent apoptosis”.

In the case of disulfide benzamide [DIBA], the “effect on growth of tamoxifen-resistant BT474 cells” value (BT474 cells) is listed as “did not inhibit” and the “inhibition of growth of ZR-75 cells” value (ZR-75 cells) is listed as roughly 20%.
